The subject of series [1] is Aspergillus niger. The experiment in a line: Determination of Minimum Inhibitory Concentrations (MIC), Sabouraud media. The format is cell-based. The conditions noted are these: Amical in free form. On the procedure:
(§1) The efficacy of Amical in comparison to Amical/methyl-β-cyclodextrin inclusion compound against different microorganism was tested by measuring the Minimum Inhibitory Concentrations (MIC in µg/ml). For the cell cultures Sabouraud media were used. […]

In series [2] the test system is Rhizopus oryzae. Described as above. The format is cell-based. The settings on record: Rhizopus arrhizus, Amical in free form. How it is done: as §1
Series [3] deals with Cladosporium cladosporioides. The series is described as above. The format is cell-based. The settings on record: Amical in free form. On the procedure: as §1
In series [4] the test system is Penicillium citrinum. The description is as above. It counts as cell-based. The settings on record: Amical in free form. On the procedure:
as §1

The conditions of series [5]: water; cited from earlier work.

Turning to `Cc1ccc(S(=O)(=O)C(I)I)cc1` [Amical, diiodomethyl-p-tolylsulfone], the MIC was 1.2 µg/mL in series [1], 7.5 to 14 µg/mL in series [2], 1.3 µg/mL in series [3] and 3.8 µg/mL in series [4]. The watersolubility entry in series [5] is on record as “less than 5 ppm”.

The MIC is the lowest concentration found to suppress growth.

The record behind these values is EP0917880A1, “Inclusion complex of diiodomethyl-p-tolylsulfone with cyclodextrin derivatives” (Wacker-Chemie GmbH, priority 1997, dated 1999).
